Like-named read-outs stand apart in the source and are kept apart here.
Tests used:
RORγt [1] = target: T1, RORγt (Homo sapiens, UniProt P51449); experiment: Jurkat reporter test (human IL-17 ROR response element luciferase reporter); format: cell-based; conditions: read-out: luminescence level inhibitory rate (%) at test compound 3 μM
T1 sequence (P51449 1-497 isoform P51449-2): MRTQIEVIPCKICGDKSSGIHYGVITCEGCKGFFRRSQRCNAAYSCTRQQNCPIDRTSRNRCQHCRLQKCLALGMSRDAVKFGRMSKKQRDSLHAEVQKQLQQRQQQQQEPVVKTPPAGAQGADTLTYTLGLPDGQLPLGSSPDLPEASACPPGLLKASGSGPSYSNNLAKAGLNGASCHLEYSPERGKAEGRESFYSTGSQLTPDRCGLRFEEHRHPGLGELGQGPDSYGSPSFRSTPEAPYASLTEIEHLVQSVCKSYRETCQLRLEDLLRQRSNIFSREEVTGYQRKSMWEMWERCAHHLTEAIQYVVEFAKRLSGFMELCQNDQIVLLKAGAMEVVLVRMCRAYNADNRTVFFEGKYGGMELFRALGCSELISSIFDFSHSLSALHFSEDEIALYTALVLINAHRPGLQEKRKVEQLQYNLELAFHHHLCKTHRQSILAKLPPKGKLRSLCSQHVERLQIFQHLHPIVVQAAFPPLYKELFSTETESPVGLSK
Experimental: The Jurkat cells used for the reporter test were cultured in a culture medium (RPMI (Invitrogen), 10% FCS (AusGeneX), 100 U/mL penicillin, 100 μg/mL streptomycin). On the day of the test, 4×10^7 cells were recovered by a centrifugal operation (1000 rpm, 5 min.) and suspended in PBS (phosphate buffered saline) (Invitrogen). Thereafter, the cells were recovered again by a centrifugal operation, and suspended in 2 mL of R buffer (NEON transfection kit, Invitrogen). […] Gene transfer was performed by Electroporation apparatus (NEON, Invitrogen) under the conditions of pulse voltage 1350 V, interval 10 milliseconds, number of times 3. The cells after gene transfer were suspended in 40 mL of a reaction medium (RPMI, 10% Lipid reduced FCS (HyClone), 10 mM HEPES (pH 7.5), 100 U/mL penicillin, 100 μg/mL streptomycin, 5 μM lovastatin), and plated in a 96 well plate by 90 μL. A test compound diluted with the reaction medium was added by 10 μL, and the cells were cultured overnight in an incubator. Bright-Glo (Promega) was added by 100 μL, and the mixture was stirred at room temperature for 10 min, and the luminescence level was measured by Envision (PerkinElmer).

RORγt [2] = target: T1, RORγt; experiment: RORγt binding test (TR-FRET, fluorescent-labeled cholesterol); conditions: read-out: binding inhibitory rate (%) of fluorescent-labeled cholesterol to RORγt at test compound 1 μM
Experimental: The binding activity of the test compound to RORγt was measured by a time resolved fluorescence resonance energy transfer method (TR-FRET) utilizing histidine-tagged RORγt, fluorescent-labeled cholesterol (BODIPY-cholesterol, AVIVA), and terbium-labeled anti-histidine tag antibody (Invitrogen). First, a test compound diluted with an assay buffer (20 mM Tris-HCl (pH 7.5), 100 mM NaCl, 1 mM DTT, 0.1% BSA) was added to a 384 well plate by 3 μL. Then, RORγt diluted with an assay buffer to 240 nM was added by 3 μL, after which fluorescent-labeled cholesterol diluted with the assay buffer to 12 μM was added by 3 μL, and the mixture was stood at room temperature for 20 min. Thereafter, a terbium-labeled anti-histidine tag antibody diluted with the assay buffer to 8 nM was added by 3 μL. The mixture was stood at room temperature for 20 min, and fluorescence intensity (excitation wavelength 320 nm, fluorescence wavelength 520 nm, delay time 100 microseconds) was measured by Envision (PerkinElmer).

RORγt [3] = target: T1, RORγt; experiment: Cofactor recruitment test (Alpha Screen, biotinylated SRC-1 peptide); format: biochemical; conditions: read-out: signal value inhibitory rate (%) at test compound 1 μM
Experimental: Cofactor Recruitment Test
Cofactor recruitment test was performed by Alpha Screen (Histidine Detection Kit, PerkinElmer) method. First, a test compound was diluted with an assay buffer (50 mM Tris-HCl (pH 7.5), 50 mM KCl, 1 mM DTT, 0.1% BSA) and added to a 384 well plate by 5 μL. […] The mixture was stood in a dark place for 1 hr, and the signal value was measured by Envision (PerkinElmer).

[4] = test compound 3 μM, Jurkat cells

inhibition at 3 µM (RORγt [1]; [4])	Structure (SMILES)	inhibition at 3 µM (RORγt [1]; Jurkat)	inhibition at 1 µM (RORγt [2])	inhibition at 1 µM (RORγt [3])
–	Cn1ncc2cc(C(NC(=O)[C@@H]3CNC(=O)C3)C(=O)Nc3ccc([Si](C)(C)C)c(F)c3)ccc21 (mixture of isomers) [Example 109, (3S)—N-(2-((3-fluoro-4-(trimethylsilyl)phenyl)amino)-1-(1-methyl-1H-indazol-5-yl)-2-oxoethyl)-5-oxopyrrolidine-3-carboxamide]	100%	100%	87.6%
95.4%	COCc1ccc(C(NC(=O)[C@@H]2CNC(=O)C2)C(=O)Nc2ccc(CC(C)(C)C)c(F)c2)cc1 (mixture of isomers) [Example 110, (3S)—N-(2-((4-(2,2-dimethylpropyl)-3-fluorophenyl)amino)-1-(4-(methoxymethyl)phenyl)-2-oxoethyl)-5-oxopyrrolidine-3-carboxamide]	–	99.6%	71.1%
97.5%	CC(C)(C)c1ccc(NC(=O)[C@H](NC(=O)C(O)C(F)(F)F)C2CCOCC2)cc1Cl (single isomer, unassigned) [Example 11]	–	102%	32%
97.3%	COCc1ccc([C@@H](NC(=O)C2CNC(=O)C2)C(=O)Nc2ccc(CC(C)(C)C)c(F)c2)cc1 (stereo in doubt) [Example 115, (3S)-N-((1R)-2-((4-(2,2-dimethylpropyl)-3-fluorophenyl)amino)-1-(4-(methoxymethyl)phenyl)-2-oxoethyl)-5-oxopyrrolidine-3-carboxamide]	–	102%	71.6%
–	C[Si](C)(C)c1c(F)cc(NC(=O)C(NC(=O)Cn2cnccc2=O)C2CCOCC2)cc1F (stereo not drawn) [Example 1, N-(3,5-difluoro-4-(trimethylsilyl)phenyl)-2-(((6-oxopyrimidin-1(6H)-yl)acetyl)amino)-2-(tetrahydro-2H-pyran-4-yl)acetamide]	97.3%	100%	72.7%
–	Cc1nnc(CC(=O)NC(C(=O)Nc2cc(F)c([Si](C)(C)C)c(F)c2)C2CCOCC2)o1 (stereo not drawn) [Example 2, N-(3,5-difluoro-4-(trimethylsilyl)phenyl)-2-(((5-methyl-1,3,4-oxadiazol-2-yl)acetyl)amino)-2-(tetrahydro-2H-pyran-4-yl)acetamide]	98.1%	102%	78%
–	C[Si](C)(C)c1c(F)cc(NC(=O)[C@H](NC(=O)c2cc(O)no2)C2CCOCC2)cc1F [Example 3, N-((1R)-2-((3,5-difluoro-4-(trimethylsilyl)phenyl)amino)-2-oxo-1-(tetrahydro-2H-pyran-4-yl)ethyl)-3-hydroxy-1,2-oxazole-5-carboxamide]	98.4%	100%	72.3%
–	C[Si](C)(C)c1ccc(NC(=O)C(NC(=O)c2cc(O)no2)C2CCC(F)(F)CC2)cc1F (stereo not drawn) [Example 4, N-(1-(4,4-difluorocyclohexyl)-2-((3-fluoro-4-(trimethylsilyl)phenyl)amino)-2-oxoethyl)-3-hydroxy-1,2-oxazole-5-carboxamide]	97%	100%	78.8%
–	C[Si](C)(C)c1ccc(NC(=O)C(NC(=O)[C@@H]2CNC(=O)C2)C2CCC(F)(F)CC2)cc1F (stereo partly drawn) [Example 5, (3S)—N-(1-(4,4-difluorocyclohexyl)-2-((3-fluoro-4-(trimethylsilyl)phenyl)amino)-2-oxoethyl)-5-oxopyrrolidine-3-carboxamide]	98%	100%	84.8%
–	CN(C(=O)c1cc(O)no1)C(C(=O)Nc1cc(F)c([Si](C)(C)C)c(F)c1)C1CCOCC1 (stereo not drawn) [Example 6, N-(2-((3,5-difluoro-4-(trimethylsilyl)phenyl)amino)-2-oxo-1-(tetrahydro-2H-pyran-4-yl)ethyl)-3-hydroxy-N-methyl-1,2-oxazole-5-carboxamide]	101%	102%	99.4%
97%	CC(C)(C)c1ccc(NC(=O)[C@H](NC(=O)[C@@H]2CNC(=O)C2)C2CCC(F)(F)CC2)cc1F [Example 7, (3S)—N-((1R)-2-((4-tert-butyl-3-fluorophenyl)amino)-1-(4,4-difluorocyclohexyl)-2-oxoethyl)-5-oxopyrrolidine-3-carboxamide]	–	102%	56.9%
93.4%	CC(C)(C)c1ccc(NC(=O)[C@H](NC(=O)C2CNC(=O)O2)C2CCC(F)(F)CC2)cc1F (stereo partly drawn) [Example 8, N-((1R)-2-((4-tert-butyl-3-fluorophenyl)amino)-1-(4,4-difluorocyclohexyl)-2-oxoethyl)-2-oxo-1,3-oxazolidine-5-carboxamide]	–	102%	49.1%
97.6%	CC(C)(C)c1ccc(NC(=O)[C@H](NC(=O)CC(F)(F)F)C2CCOCC2)cc1Cl [Example 9, N-((1R)-2-((4-tert-butyl-3-chlorophenyl)amino)-2-oxo-1-(tetrahydro-2H-pyran-4-yl)ethyl)-3,3,3-trifluoropropanamide]	–	100%	29.7%
95.3%	CC(C)(C)c1ccc(NC(=O)[C@H](NC(=O)[C@@H](O)C(F)(F)F)C2CCOCC2)cc1Cl [Example 10, N-((1R)-2-((4-tert-butyl-3-chlorophenyl)amino)-2-oxo-1-(tetrahydro-2H-pyran-4-yl)ethyl)-3,3,3-trifluoro-2-hydroxypropanamide]	–	102%	2.04%
–	COc1ccc(C(NC(=O)C2CNC(=O)C2)C(=O)Nc2ccc([Si](C)(C)C)cc2)cc1 (stereo not drawn) [Example 13, N-(1-(4-methoxyphenyl)-2-oxo-2-((4-(trimethylsilyl)phenyl)amino)ethyl)-5-oxopyrrolidine-3-carboxamide]	92.6%	101%	51.1%
–	COc1ccc(C(C(=O)Nc2ccc([Si](C)(C)C)c(F)c2)N(C)C(=O)c2cc(O)no2)cc1 (stereo not drawn) [Example 15, N-(2-((3-fluoro-4-(trimethylsilyl)phenyl)amino)-1-(4-methoxyphenyl)-2-oxoethyl)-3-hydroxy-N-methyl-1,2-oxazole-5-carboxamide]	99.4%	109%	91.6%
–	COc1ccc(C(NC(=O)Cc2ccc(=O)[nH]c2)C(=O)Nc2ccc([Si](C)(C)C)cc2)cc1 (stereo not drawn) [Example 16, 2-(4-methoxyphenyl)-2-(((6-oxo-1,6-dihydropyridin-3-yl)acetyl)amino)-N-(4-(trimethylsilyl)phenyl)acetamide]	93.2%	102%	81.9%
–	COc1ccc(C(NC(=O)Cc2cc(C)no2)C(=O)Nc2ccc([Si](C)(C)C)cc2)cc1 (stereo not drawn) [Example 18, 2-(4-methoxyphenyl)-2-(((3-methyl-1,2-oxazol-5-yl)acetyl)amino)-N-(4-(trimethylsilyl)phenyl)acetamide]	90.9%	101%	60.3%
–	COc1ccc(C(NC(=O)Cc2ccn(C)n2)C(=O)Nc2ccc([Si](C)(C)C)cc2)cc1 (stereo not drawn) [Example 19, 2-(4-methoxyphenyl)-2-(((1-methyl-1H-pyrazol-3-yl)acetyl)amino)-N-(4-(trimethylsilyl)phenyl)acetamide]	84.7%	101%	50.7%

— patent publication US11851449B2, “Heterocyclic amide compounds having an RORvt inhibitory action” (TAKEDA PHARMACEUTICAL COMPANY LIMITED, priority 2013, dated 2023)
